US6326395A, “Antifungal activity of dicationic molecules” (priority 1999, dated 2001)
Converted amounts (≈) assume the structure as drawn. Structures can show the parent of a compound that is named as a salt. Where two headings read alike, the source gives them in different places.

Assays:
[1] = system: C. neoformans 114.96; assay: antifungal susceptibility testing (MIC, MFC), extended spectrum; assay type: cell-based, C. neoformans var. neoformans; details: Cryptococcus neoformans, read-out: fluconazole-resistant
From the text: (§1) Antifungal susceptibility testing for compounds set forth in Examples 1-20 is discussed hereinbelow. The fungi that were employed included two reference strains, C. neoformans var. neoformans H99 and C. albicans A39 and the following clinical isolates: (1) two strains of fluconazole-resistant C. neoformans var. neoformans (135.95 and 114.96); (2) two strains of C. neoformans var. gattii (119.95 and 114.95); (3) two strains of fluconazole-resistant C. albicans (102.96 and 103.96); and (4) one strain each of Torulopsis glabrata (142.91), Candida parapsilosis (111.96), Candida krusei (132.91), C. tropicalis (110.96), Candida lusitaniae (111.92), Fusarium solani (152.89), Aspergillus fumigatus (168.95), and Aspergillus flavus (112.96). Antifungal susceptibility testing was performed using an RPMI-1640 medium (Sigma Chemical Co., St. Louis, Mo.) with glutamine, without sodium bicarbonate, and buffered at pH 7.0 with 0.165 M morpholine-propanesulfonic acid (MOPS).
(§2) In vitro susceptibility testing in the form of Minimum Inhibitory Concentration (MIC) experiments were performed using the broth macrodilution method according to the recommendations of the National Committee for Clinical Laboratory Standards (see 1995 manual). […] Briefly, this procedure specifies an inoculum grown at 35° C. and adjusted to a concentration of 0.5-2.5×10^3 CFU/ml with an incubation of the test performed at 35° C. and reading at 48 hours for all yeasts except for C. neoformans which is interpreted at 72 hr.
(§3) Minimum Fungicidal Concentration (MFC) experiments were adapted from a method by McGinnis (McGinnis, M. R., (1980) "Susceptibility testing and bioassay procedure", p. 431, Academic Press, Inc., New York). […] The lowest drug concentration that yielded three or fewer yeasts colonies was recorded as the MFC. […]
as §3, with “p.431,” for “p. 431,”, “3” for “three”

[2] = system: Candida albicans A39; assay: as above; assay type: cell-based; details: Candida albicans, A39, read-out: MICs
From the text: as §1
(§4) In vitro susceptibility testing in the form of Minimum Inhibitory Concentration (MIC) experiments were performed using the broth macrodilution method according to the recommendations of the National Committee for Clinical Laboratory Standards (see 1995 manual). The only difference compared to the standardized procedure was the choice of drug dilutions ranging from 100 to 0.09 μg/ml. Briefly, this procedure specifies an inoculum grown at 35° C. and adjusted to a concentration of 0.5-2.5×10^3 CFU/ml with an incubation of the test performed at 35° C. and reading at 48 hours for all yeasts except for C. neoformans which is interpreted at 72 hr.
(§5) Minimum Fungicidal Concentration (MFC) experiments were adapted from a method by McGinnis (McGinnis, M. R., (1980) "Susceptibility testing and bioassay procedure", p. 431, Academic Press, Inc., New York). Briefly, 10 μl aliquots from tubes with growth inhibition were plated onto Sabouraud agar plates. The lowest drug concentration that yielded three or fewer yeasts colonies was recorded as the MFC.
(§6) Antifungal susceptibility testing for compounds set forth in Examples 21-28 is discussed hereinbelow. […]
as §3, with “p.431,” for “p. 431,”, “3” for “three”

[3] = system: Cryptococcus neoformans; assay: in vitro antifungal susceptibility testing (MIC, MFC; broth macrodilution), Tables 1-7; assay type: cell-based; details: for MIC: read-out: MIC80 (Minimum inhibitory concentration 80%); for MFC: read-out: MFC (Minimum fungicidal concentration)
From the text: as §1, with “The” for “Antifungal susceptibility testing for compounds set forth in Examples 1-20 is discussed hereinbelow. The”
as §4
as §5, with “plates.” for “plates. The lowest drug concentration that yielded three or fewer yeasts colonies was recorded as the MFC.”
(§7) The fungi that were employed included two quality control reference strains, C. neoformans var. neoformansH99 and C. albicans A39 and the following clinical isolates: (1) four strains of C. neoformans var. neoformans (167.95; 135.95; 114.96; and 133.95) of which three were fluconazole-resistant>64 μg/ml (135.95; 114.96; and 133.95); (2) two strains of C. neoformans var. gattii (119.95 and 114.95); (3) two strains of fluconazole-resistant>64 μg/ml C. albicans (102.96 and 103.96); and (4) one strain each of C. glabrata (142.91), Candida parapsilosis (111.96), Candida krusei (132.91), C. tropicalis (110.96), Candida lusitaniae (111.92), Fusarium solani (152.89), Aspergillus fumigatus (168.95), Rhizopus arrhizus (117.89), Paecilomyces lilacinus (137.90), and Aspergillus flavus (112.96). Antifungal susceptibility testing was performed using an RPMI-1640 medium (Sigma Chemical Co., St. Louis, Mo.) with glutamine, without sodium bicarbonate, and buffered at pH 7.0 with 0.165 M morpholinepropanesulfonic acid (MOPS).
as §5, with “p.431,” for “p. 431,”, “plates.” for “plates. The lowest drug concentration that yielded three or fewer yeasts colonies was recorded as the MFC.”

[4] = system: Candida albicans; assay: as above; assay type: cell-based; details: for MIC: read-out: MIC80 (Minimum inhibitory concentration 80%); for MFC: three or fewer colonies, read-out: MFC (Minimum fungicidal concentration)
From the text: as §1, with “The” for “Antifungal susceptibility testing for compounds set forth in Examples 1-20 is discussed hereinbelow. The”
as §4
as §5, with “plates.” for “plates. The lowest drug concentration that yielded three or fewer yeasts colonies was recorded as the MFC.”
as §7
as §5, with “p.431,” for “p. 431,”, “plates.” for “plates. The lowest drug concentration that yielded three or fewer yeasts colonies was recorded as the MFC.”

[5] = system: C. neoformans 133.95; assay: antifungal susceptibility testing (MIC, MFC), extended spectrum; assay type: cell-based, C. neoformans var. neoformans; details: Cryptococcus neoformans, read-out: fluconazole-resistant
Procedure: as §6, §2
as §3, with “p.431,” for “p. 431,”, “3” for “three”

[6] = system: C. neoformans 135.95; assay: as above; assay type: cell-based, C. neoformans var. neoformans; details: Cryptococcus neoformans, read-out: fluconazole-resistant
Procedure: as §6, §2
as §3, with “p.431,” for “p. 431,”, “3” for “three”

[7] = system: C. albicans 103.96; assay: as above; assay type: cell-based, Candida albicans; details: Candida albicans, 103.96, read-out: fluconazole-resistant
From the text: as §1, §4, §5
as §7, with “Antifungal susceptibility testing for compounds set forth in Examples 21-28 is discussed hereinbelow. The” for “The”
as §5, with “p.431,” for “p. 431,”, “3” for “three”, “MFC. Several drugs were also rescreened with a subculture of 100 μl aliquots from tubes with no growth and there was no change in MFC.” for “MFC.”

[8] = system: C. albicans 102.96; assay: as above; assay type: cell-based, Candida albicans; details: Candida albicans, 102.96, read-out: fluconazole-resistant
From the text: as §1, §4, §5
as §7, with “Antifungal susceptibility testing for compounds set forth in Examples 21-28 is discussed hereinbelow. The” for “The”
as §5, with “p.431,” for “p. 431,”, “3” for “three”, “MFC. Several drugs were also rescreened with a subculture of 100 μl aliquots from tubes with no growth and there was no change in MFC.” for “MFC.”

[9] = system: Cryptococcus neoformans H99; assay: as above; assay type: cell-based, C. neoformans var. neoformans; details: Cryptococcus neoformans, H99, read-out: MICs
From the text: as §1, §2, §3
as §3, with “p.431,” for “p. 431,”, “3” for “three”

[10] = Tables 2-7, three or fewer colonies
[11] = Table 1, three or fewer colonies

MIC ([3]; 35° C., 72 hr) [µg/mL] | MIC ([4]; 35° C., reading at 48 hours) [µg/mL] | SMILES | MFC [3, 10] [µg/mL] | MFC [4] [µg/mL] | further results
0.78 (≈ 2.11 µM) | 0.78 (≈ 2.11 µM) | N=C(N)c1ccc(Oc2ccc(-c3nc4ccc(C(=N)N)cc4[nH]3)cc2)cc1 [Compound 67] | 6.25 (≈ 16.9 µM) | 0.78 (≈ 2.11 µM) | –
0.39 (≈ 0.854 µM) | 0.78 (≈ 1.71 µM) | N=C(N)c1ccc(OCCCCCOc2ccc(-c3nc4ccc(C(=N)N)cc4[nH]3)cc2)cc1 [Compound 66] | 6.25 (≈ 13.7 µM) | 1.56 (≈ 3.42 µM) | –
≤ 0.09 | 0.39 (≈ 0.881 µM) | N=C(N)c1ccc(OCCCCOc2ccc(-c3nc4ccc(C(=N)N)cc4[nH]3)cc2)cc1 [Compound 65] | 1.56 (≈ 3.53 µM) | 3.12 (≈ 7.05 µM) | –
0.39 | 1.56 | CC(C)NC(=N)c1ccc2nc(-c3ccc(CCc4ccc(-c5nc6ccc(C(=N)NC(C)C)cc6[nH]5)cc4)cc3)[nH]c2c1 [Compound 53, 4,4'-Bis[2-(5-N-isopropylamidino)benzimidazoyl]-1,2-diphenylethane hydrochloride] | 0.78 | 6.25 | –
25 (≈ 59.2 µM) | 25 (≈ 59.2 µM) | Cc1cc(-c2nc3ccc(C(=N)N)cc3[nH]2)c(C)cc1-c1nc2ccc(C(=N)N)cc2[nH]1 [Compound 50] | 25 (≈ 59.2 µM) | 100 (≈ 237 µM) | –
0.78 | 0.78 | N=C(NC1CCCC1)c1ccc2nc(-c3ccc4oc(-c5nc6ccc(C(=N)NC7CCCC7)cc6[nH]5)cc4c3)[nH]c2c1 [Compound 56, 2,5-Bis[2-(5-N-cyclopentylamidino)benzimidazoyl]benzo[b]furan hydrochloride] | 0.78 | 0.78 | –

More lines, now with the values behind:

SMILES | MIC ([3]; 35° C., 72 hr) [µg/mL] | MIC ([4]; 35° C., reading at 48 hours) [µg/mL] | MFC [3, 10] [µg/mL] | MFC [4] [µg/mL] | further results
OC(Cn1cncn1)(Cn1cncn1)c1ccc(F)cc1F [Fluconazole, reference compound] | – | – | – | – | MIC [1]: > 64 µg/mL; MIC [2]: 0.25 µg/mL (≈ 0.816 µM); MIC80 (Minimum inhibitory concentration 80%) ([3]; 35° C., 72 hr): 2.0 µg/mL (≈ 6.53 µM); MIC ([3]; 72 h): 2 µg/mL (≈ 6.53 µM); MIC ([4]; 48 h): 0.25 µg/mL (≈ 0.816 µM); MIC [5]: > 64 µg/mL; MIC [6]: > 64 µg/mL; MIC [7]: > 64 µg/mL; MIC [8]: > 64 µg/mL
C[C@@H]1[C@H](O)[C@@H](C)/C=C/C=C/C=C/C=C/C=C/C=C/C=C/[C@H](O[C@@H]2O[C@H](C)[C@@H](O)[C@H](N)[C@@H]2O)C[C@@H]2O[C@](O)(C[C@@H](O)C[C@@H](O)[C@H](O)CC[C@@H](O)C[C@@H](O)CC(=O)O[C@H]1C)C[C@H](O)[C@H]2C(=O)O [Amphotericin, reference compound] | 1 (≈ 1.08 µM) | 1 (≈ 1.08 µM) | – | – | MIC [2]: 1 µg/mL (≈ 1.08 µM); MIC [9]: 1 µg/mL (≈ 1.08 µM)
CC(C)NC(=N)c1cccc(-c2ccc(-c3cccc(C(=N)NC(C)C)c3)o2)c1 [Compound 40] | 6.25 (≈ 16.1 µM) | 100 (≈ 257 µM) | 6.25 (≈ 16.1 µM) | > 100 | –
CCC(CC)NC(=N)c1ccc(-c2ccc(-c3ccc(C(=N)NC(CC)CC)cc3)o2)cc1 [Compound 26] | 12.5 (≈ 28.1 µM) | 100 (≈ 225 µM) | 12.5 (≈ 28.1 µM) | 100 (≈ 225 µM) | –
NC(=NO)c1ccc(OCCCOc2ccc(C(N)=NO)cc2)cc1 [Compound 5] | > 100 | > 100 | – | – | –
c1cc2nc(-c3ccc(-c4nc5ccc(C6=NCCN6)cc5[nH]4)cc3)[nH]c2cc1C1=NCCN1 [Compound 48] | 0.78 (≈ 1.75 µM) | 0.78 (≈ 1.75 µM) | 1.56 (≈ 3.49 µM) | 6.25 (≈ 14 µM) | –
CN(CCCNC(=O)c1ccc(-c2ccc(-c3ccc(C(=O)NCCCN(C)c4ccccc4)cc3)o2)cc1)c1ccccc1 [Compound 36] | > 100 | > 100 | – | – | –
CN(C)CCCNC(=O)c1ccc(-c2ccc(-c3ccc(C(=O)NCCCN(C)C)cc3)o2)cc1 [Compound 35] | > 100 | > 100 | – | – | –
N=C(N)c1ccc2nc(C=Cc3nc4ccc(C(=N)N)cc4[nH]3)[nH]c2c1 [Compound 32] | 1.56 (≈ 4.53 µM) | 6.25 (≈ 18.1 µM) | 3.12 (≈ 9.06 µM) | 12.5 (≈ 36.3 µM) | –
c1cc(C2=NCCN2)ccc1OCCCCOc1ccc(C2=NCCN2)cc1 [Compound 14] | 6.25 (≈ 16.5 µM) | 0.78 (≈ 2.06 µM) | – | 1.56 (≈ 4.12 µM) | MFC [3, 11]: 12.5 µg/mL (≈ 33 µM)
N=C(N)c1ccc(OCCOc2ccc(C(=N)N)cc2N)c(N)c1 [Compound 2] | > 100 | 25 (≈ 76.1 µM) | – | – | –
N=C(N)c1ccc(OCCCOc2ccc(C(=N)N)cc2)cc1 [Compound 3] | 6.25 (≈ 20 µM) | 3.12 (≈ 9.99 µM) | – | 3.12 (≈ 9.99 µM) | MFC [3, 11]: 6.25 µg/mL (≈ 20 µM)
